Laboratory results as given in article PMC6718736, “Validation of in vitro methods for human cytochrome P450 enzyme induction: Outcome of a multi-laboratory study” (Toxicology in Vitro, 2019).
Counter-ions that a name gives are not always drawn. Like-named read-outs stand apart in the source and are kept apart here.

Experiments:
[1] = tested on: CYP1A2; assay: CYP1A2 enzyme induction assay in cryopreserved HepaRG cells (phenacetin probe, LC/MS); format: in vitro ADME, human; settings: for Assigned classification CYP1A2: HepaRG; for Assigned classification CYP1A2: key: 1=Positive=inducer; 0=Negative=non-inducer
[2] = tested on: CYP2B6; assay: CYP2B6 enzyme induction assay in cryopreserved HepaRG cells (bupropion probe, LC/MS); format: in vitro ADME, human; settings: for Prediction in vivo inducer: Cmax/F2 >0.5 criterion; for Assigned classification CYP2B6: HepaRG; for Assigned classification CYP2B6: key: 1=Positive=inducer; 0=Negative=non-inducer
[3] = tested on: CYP3A4; assay: CYP3A4 enzyme induction assay in cryopreserved HepaRG cells (midazolam probe, LC/MS); format: in vitro ADME, human; settings: for Assigned classification CYP3A4: HepaRG; for Assigned classification CYP3A4: key: 1=Positive=inducer; 0=Negative=non-inducer
[4] = tested on: CYP1A2; assay: CYP1A2 enzyme induction assay in cryopreserved primary human hepatocytes (PHH); format: in vitro ADME; settings: for Assigned classification CYP1A2: PHH;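 for Assigned classification CYP1A2: code 1 means positive inducer and 0 means non-inducer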
[5] = tested on: CYP2B6; assay: CYP2B6 enzyme induction assay in cryopreserved primary human hepatocytes (PHH); format: in vitro ADME; settings: for Assigned classification CYP2B6: PHH;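 for Assigned classification CYP2B6: code 1 means positive inducer and 0 means non-inducer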
[6] = tested on: CYP1A2; settings: CYP1A2, human; ref Table 1; cited from earlier work
[7] = cited from earlier work
[8] = tested on: CYP; settings: CYP isoforms induced; ref Abadie et al. (2009), Richert et al. (2010), Preissner et al. (2010), Hoffmann et al. (2014); cited from earlier work
[9] = tested on: CYP2B6; settings: cited from earlier work
[10] = tested on: CYP3A4; settings: CYP3A4, human in vivo reference classification (Table 11); cited from earlier work
[11] = tested on: CYP3A4; assay: CYP3A4 enzyme induction assay in cryopreserved primary human hepatocytes (PHH); settings: for Assigned classification CYP3A4: PHH

Question: For `CC(C)NCC(O)c1ccc(NS(C)(=O)=O)cc1` (stereo not drawn) [Sotalol hydrochloride], which “Prediction in vivo inducer” value ([1]; CYP1A2, HepaRG cells, Cmax/F2 >0.5 criterion) is on record?
Answer: No

Question: And the Induction in vitro ([1]; CYP1A2, HepaRG cells, positive in one batch in each of the three laboratories)?
Answer: No

Question: And the “Assigned classification CYP1A2” value ([1]; Lab 1, batch 20)?
Answer: 0

Question: What about the “Assigned classification CYP1A2” value ([1]; Lab 1, batch 35) of the same compound?
Answer: 0

Question: And the “Assigned classification CYP1A2” value ([1]; Lab 1, batch 36)?
Answer: 0

Question: What about the “Assigned classification CYP1A2” value ([1]; Lab 2, batch 20) of the same compound?
Answer: 0

Question: And the “Assigned classification CYP1A2” value ([1]; Lab 2, batch 35)?
Answer: 0

Question: And the “Assigned classification CYP1A2” value ([1]; Lab 2, batch 36)?
Answer: 0

Question: And the “Assigned classification CYP1A2” value ([1]; Lab 3, batch 20)?
Answer: 1

Question: And the “Assigned classification CYP1A2” value ([1]; Lab 3, batch 35)?
Answer: 0

Question: What about the “Assigned classification CYP1A2” value ([1]; Lab 3, batch 36) of the same compound?
Answer: 0

Question: And the “Prediction in vivo inducer” value ([2]; CYP2B6, HepaRG cells, listed as Sotalol)?
Answer: No

Question: And the “Prediction in vivo inducer” value ([2]; CYP2B6, HepaRG cells, listed as sotalol)?
Answer: correctly predicted

Question: What about the Induction in vitro ([2]; CYP2B6, HepaRG cells, positive in one batch in each of the three laboratories) of the same compound?
Answer: No

Question: And the “Assigned classification CYP2B6” value ([2]; Lab 1, batch 20)?
Answer: 0

Question: And the “Assigned classification CYP2B6” value ([2]; Lab 1, batch 35)?
Answer: 0

Question: And the “Assigned classification CYP2B6” value ([2]; Lab 1, batch 36)?
Answer: 0

Question: And the “Assigned classification CYP2B6” value ([2]; Lab 2, batch 20)?
Answer: 0

Question: And the “Assigned classification CYP2B6” value ([2]; Lab 2, batch 35)?
Answer: 0

Question: What about the “Assigned classification CYP2B6” value ([2]; Lab 2, batch 36) of the same compound?
Answer: 0

Question: What about the “Assigned classification CYP2B6” value ([2]; Lab 3, batch 20) of the same compound?
Answer: 0

Question: And the “Assigned classification CYP2B6” value ([2]; Lab 3, batch 35)?
Answer: 0

Question: What about the “Assigned classification CYP2B6” value ([2]; Lab 3, batch 36) of the same compound?
Answer: 0

Question: And the Induction in vitro ([3]; CYP3A4, HepaRG cells)?
Answer: No

Question: And the “Prediction in vivo inducer” value ([3]; CYP3A4, HepaRG cells)?
Answer: No

Question: What about the “Assigned classification CYP3A4” value ([3]; Lab 1, batch 20) of the same compound?
Answer: 0

Question: And the “Assigned classification CYP3A4” value ([3]; Lab 1, batch 35)?
Answer: 0

Question: What about the “Assigned classification CYP3A4” value ([3]; Lab 1, batch 36) of the same compound?
Answer: 0

Question: What about the “Assigned classification CYP3A4” value ([3]; Lab 2, batch 20) of the same compound?
Answer: 0

Question: And the “Assigned classification CYP3A4” value ([3]; Lab 2, batch 35)?
Answer: 0

Question: And the “Assigned classification CYP3A4” value ([3]; Lab 2, batch 36)?
Answer: 0

Question: What about the “Assigned classification CYP3A4” value ([3]; Lab 3, batch 20) of the same compound?
Answer: 0

Question: And the “Assigned classification CYP3A4” value ([3]; Lab 3, batch 35)?
Answer: 0

Question: And the “Assigned classification CYP3A4” value ([3]; Lab 3, batch 36)?
Answer: 0

Question: And the “Prediction in vivo inducer” value ([4]; CYP1A2, PHH, Cmax/F2 >0.5 criterion)?
Answer: No

Question: And the Induction in vitro ([4]; CYP1A2, PHH, positive in one donor in each of the three laboratories)?
Answer: No

Question: And the “Assigned classification CYP1A2” value ([4]; Lab 1, batch 0 6 A)?
Answer: 0

Question: And the “Assigned classification CYP1A2” value ([4]; Lab 1, batch 4 0 8)?
Answer: 0

Question: What about the “Assigned classification CYP1A2” value ([4]; Lab 1, batch 8 0 8) of the same compound?
Answer: 0

Question: And the “Assigned classification CYP1A2” value ([4]; Lab 2, batch 0 6 A)?
Answer: 0

Question: What about the “Assigned classification CYP1A2” value ([4]; Lab 2, batch 4 0 8) of the same compound?
Answer: 0

Question: And the “Assigned classification CYP1A2” value ([4]; Lab 2, batch 8 0 8)?
Answer: 0

Question: What about the “Assigned classification CYP1A2” value ([4]; Lab 3, batch 0 6 A) of the same compound?
Answer: 0

Question: And the “Assigned classification CYP1A2” value ([4]; Lab 3, batch 4 0 8)?
Answer: 0

Question: What about the “Assigned classification CYP1A2” value ([4]; Lab 3, batch 8 0 8) of the same compound?
Answer: 0

Question: And the Induction in vitro ([5]; CYP2B6, PHH)?
Answer: No

Question: And the “Prediction in vivo inducer” value ([5]; CYP2B6, PHH)?
Answer: No

Question: And the “Prediction in vivo inducer” value ([5]; CYP2B6, PHH, Cmax/F2 >0.5 criterion)?
Answer: negative

Question: And the “Assigned classification CYP2B6” value ([5]; Lab 1, batch 0 6 A)?
Answer: 0

Question: And the “Assigned classification CYP2B6” value ([5]; Lab 1, batch 4 0 8)?
Answer: 0

Question: What about the “Assigned classification CYP2B6” value ([5]; Lab 1, batch 8 0 8) of the same compound?
Answer: 0

Question: And the “Assigned classification CYP2B6” value ([5]; Lab 2, batch 0 6 A)?
Answer: 0

Question: What about the “Assigned classification CYP2B6” value ([5]; Lab 2, batch 4 0 8) of the same compound?
Answer: 0

Question: What about the “Assigned classification CYP2B6” value ([5]; Lab 2, batch 8 0 8) of the same compound?
Answer: 0

Question: And the “Assigned classification CYP2B6” value ([5]; Lab 3, batch 0 6 A)?
Answer: 1

Question: And the “Assigned classification CYP2B6” value ([5]; Lab 3, batch 4 0 8)?
Answer: 0

Question: What about the “Assigned classification CYP2B6” value ([5]; Lab 3, batch 8 0 8) of the same compound?
Answer: 0

Question: And the Induction in vivo [6]?
Answer: No

Question: What about the Cmax ([7]; human in vivo plasma concentration, normal dose) of the same compound?
Answer: 2000 nM

Question: And the Cmax ([7]; human in vivo, normal dose (Table 10))?
Answer: 2000 nM

Question: What about the “CYP induction in vitro (human hepatocytes)” value [8] of the same compound?
Answer: No

Question: And the Induction in vivo ([9]; CYP2B6, human in vivo reference classification)?
Answer: No

Question: And the Induction in vivo ([9]; CYP2B6, human, ref Table 1)?
Answer: No

Question: What about the Induction in vivo [10] of the same compound?
Answer: No

Question: What about the Induction in vitro ([11]; CYP3A4, PHH) of the same compound?
Answer: No

Question: What about the “Prediction in vivo inducer” value ([11]; CYP3A4, PHH) of the same compound?
Answer: No

Question: What about the “Assigned classification CYP3A4” value ([11]; Lab 1, batch 0 6 A) of the same compound?
Answer: 0

Question: And the “Assigned classification CYP3A4” value ([11]; Lab 1, batch 4 0 8)?
Answer: 0

Question: What about the “Assigned classification CYP3A4” value ([11]; Lab 1, batch 8 0 8) of the same compound?
Answer: 0

Question: What about the “Assigned classification CYP3A4” value ([11]; Lab 2, batch 0 6 A) of the same compound?
Answer: 0

Question: What about the “Assigned classification CYP3A4” value ([11]; Lab 2, batch 4 0 8) of the same compound?
Answer: 0

Question: And the “Assigned classification CYP3A4” value ([11]; Lab 2, batch 8 0 8)?
Answer: 0

Question: What about the “Assigned classification CYP3A4” value ([11]; Lab 3, batch 0 6 A) of the same compound?
Answer: 0

Question: And the “Assigned classification CYP3A4” value ([11]; Lab 3, batch 4 0 8)?
Answer: 0

Question: What about the “Assigned classification CYP3A4” value ([11]; Lab 3, batch 8 0 8) of the same compound?
Answer: 0
